Source: the NIST ThermoML archive (doi:10.1016/j.jct.2014.03.009)
± gives the expanded uncertainty stated by the source.

Settings: 298 K; 101.33 kPa; Crystal; X-ray diffraction

Which mass density does the source give for `O.O.O.O.O=C([O-])[C@H](O)[C@@H](O)[C@H](O)[C@H](O)CO.O=C([O-])[C@H](O)[C@@H](O)[C@H](O)[C@H](O)CO.[Mn+2]` [manganese(II) D-gluconate tetrahydrate] here?
The mass density was 1713 ± 8 kg/m3.
